Test results from patent publication US20070027143A1, “Novel substituted 2,3-benzodiazepine derivatives” (priority 2003, published 2007).

| Structure (SMILES) | melting point [°C] |
| --- | --- |
| CCc1nnc(N2N=C(c3ccc([N+](=O)[O-])cc3)c3cc4c(cc3C[C@H]2C)OCO4)s1 [Example 31, (R)-7-(5-Ethyl-1,3,4-thiadiazol-2-yl)-8-methyl-5-(4-nitrophenyl)-8,9-dihydro-7H-1,3-dioxolo[4,5-h][2,3]benzodiazepine] | 105 |
| C[C@H]1Cc2cc3c(cc2C(c2ccc(N)cc2)=NN1c1nccs1)OCO3 [Example 62, (S)-5-(4-Aminophenyl)-8-methyl-7-(2-thiazolyl)-8,9-dihydro-7H-1,3-dioxolo[4,5-h][2,3]benzodiazepine] | 124 to 128 |
| C[C@H]1Cc2cc3c(cc2C(c2ccc(N)cc2)=NN1C1=NCCS1)OCO3 [Example 70, (S)-5-(4-Aminophenyl)-7-(4,5-dihydro-thiazol-2-yl)-8-methyl-8,9-dihydro-7H-1,3-dioxolo-[4,5-h][2,3]benzodiazepine] | 150 to 152 |
| Nc1ccc(C2=NN(c3nccs3)CCc3cc4c(cc32)OCO4)cc1 [Example 74, 5-(4-Aminophenyl)-7-(2-thiazolyl)-8,9-dihydro-7H-1,3-dioxolo[4,5-h][2,3]benzodiazepine] | 200 to 204 |
| CC1=Cc2cc3c(cc2C(c2ccc(C)c(N)c2)=NN1c1nnc(C)s1)OCO3 [Example 96, (±)-5-(3-Amino-4-methylphenyl)-8-methyl-7-(5-methyl-1,3,4-thiadiazol-2-yl)-7H-1,3-dioxolo-[4,5-h][2,3]benzodiazepine] | 125 |
| CC(=O)Nc1ccc(C2=NN(c3nccs3)[C@H](C)Cc3cc4c(cc32)OCO4)cc1 [Example 123, (R)-5-(4-Acetylaminophenyl)-8-methyl-7-(2-thiazolyl)-8,9-dihydro-7H-1,3-dioxolo[4,5-h][2,3]benzodiazepine] | 126 |
| CC(=O)Nc1ccc(C2=NN(c3nccs3)[C@@H](C)Cc3cc4c(cc32)OCO4)cc1 [Example 124, (S)-5-(4-Acetylaminophenyl)-8-methyl-7-(2-thiazolyl)-8,9-dihydro-7H-1,3-dioxolo-[4,5-h][2,3]benzodiazepine] | 124 to 128 |
| CC(=O)Nc1ccc(C2=NN(C3=NCCS3)[C@H](C)Cc3cc4c(cc32)OCO4)cc1 [Example 125, (R)-5-(4-Acetylaminophenyl)-7-(4,5-dihydro-thiazol-2-yl)-8-methyl-8,9-dihydro-7H-1,3-dioxolo-[4,5-h][2,3]benzodiazepine] | 143 to 145 |
| CC(=O)Nc1ccc(C2=NN(C3=NCCS3)[C@@H](C)Cc3cc4c(cc32)OCO4)cc1 [Example 126, (S)-5-(4-Acetylaminophenyl)-7-(4,5-dihydro-thiazol-2-yl)-8-methyl-8,9-dihydro-7H-1,3-dioxolo-[4,5-h][2,3]benzodiazepine] | 148 to 154 |
| CC(=O)OCc1nnc(N2N=C(c3ccc([N+](=O)[O-])c(C)c3)c3cc4c(cc3C[C@H]2C)OCO4)s1 [Example 141, (R)-7-(5-Acetoxymethyl-1,3,4-thiadiazol-2-yl)-8-methyl-5-(3-methyl-4-nitrophenyl)-8,9-dihydro-7H-1,3-dioxolo[4,5-h][2,3]benzodiazepine] | 110 to 115 |

Now from value to molecule:

| melting point [°C] | Structure (SMILES) |
| --- | --- |
| 162 to 163 | CC(=O)Nc1ccc(C2=NN(c3ncccn3)C(C)Cc3cc4c(cc32)OCO4)cc1 (racemic) [Example 128, (±)-5-(4-Acetylaminophenyl)-8-methyl-7-(2-pyrimidinyl)-8,9-dihydro-7H-1,3-dioxolo-[4,5-h][2,3]benzodiazepine] |
| 164 to 170 | CC(=O)Nc1ccc(C2=NN(c3ccc(Cl)nn3)C(C)Cc3cc4c(cc32)OCO4)cc1 (racemic) [Example 129, (±)-5-(4-Acetylaminophenyl)-7-(3-chloro-pyridazin-6-yl)-8-methyl-8,9-dihydro-7H-1,3-dioxolo-[4,5-h][2,3]benzodiazepine] |
| 258 to 262 | CC(=O)Nc1ccc(C2=NN(c3nnc(C)s3)C(C)Cc3cc4c(cc32)OCO4)cc1C (racemic) [Example 131, (±)-5-(4-Acetylamino-3-methylphenyl)-8-methyl-7-(5-methyl-1,3,4-thiadiazol-2-yl)-8,9-dihydro-7H-1,3-dioxolo[4,5-h][2,3]benzodiazepine] |
| 100 to 103 | Cc1cc(N2N=C(c3ccc(N)cc3)c3cc4c(cc3CC2C)OCO4)on1 (racemic) [Example 185, (±)-5-(4-Aminophenyl)-8-methyl-7-(3-methyl-isoxazol-5-yl)-8,9-dihydro-7H-1,3-dioxolo-[4,5-h][2,3]benzodiazepine] |
| 148 to 150 | Cc1ncc(N2N=C(c3ccc(N)cc3)c3cc4c(cc3CC2C)OCO4)o1 (racemic) [Example 187, (±)-5-(4-Aminophenyl)-8-methyl-7-(2-methyl-1,3-oxazol-5-yl)-8,9-dihydro-7H-1,3-dioxolo-[4,5-h][2,3]benzodiazepine] |
| 124 to 130 | CC1Cc2cc3c(cc2C(c2ccc(N)cc2)=NN1C1=NC(=O)C(C)(C)S1)OCO3 (racemic) [Example 193, (±)-5-(4-Aminophenyl)-8-methyl-7-(5,5-dimethyl-4-oxo-4,5-dihydrothiazol-2-yl)-8,9-dihydro-7H-1,3-dioxolo-[4,5-h][2,3]benzodiazepine] |
| 276 to 277 | CC(=O)Nc1ccc(C2=NN(c3nnc(C)s3)[C@H](C)Cc3cc4c(cc32)OCO4)cc1 [Example 130, (R)-5-(4-Acetylaminophenyl)-8-methyl-7-(5-methyl-1,3,4-thiadiazol-2-yl)-8,9-dihydro-7H-1,3-dioxolo-[4,5-h][2,3]benzodiazepine] |
| 126 to 130 | Cc1cc(C2=NN(c3nnc(C4CC4)s3)[C@H](C)Cc3cc4c(cc32)OCO4)ccc1[N+](=O)[O-] [Example 139, (R)-7-(5-Cyclopropyl-1,3,4-thiadiazol-2-yl)-8-methyl-5-(3-methyl-4-nitrophenyl)-8,9-dihydro-7H-1,3-dioxolo[4,5-h][2,3]benzodiazepine] |
| 142 to 145 | Cc1cc(C2=NN(c3nnc(CO)s3)[C@H](C)Cc3cc4c(cc32)OCO4)ccc1[N+](=O)[O-] [Example 140, (R)-7-(5-Hydroxymethyl-1,3,4-thiadiazol-2-yl)-8-methyl-5-(3-methyl-4-nitrophenyl)-8,9-dihydro-7H-1,3-dioxolo[4,5-h][2,3]benzodiazepine] |
| 118 to 122 | Cc1cc(C2=NN(c3nnc(CC#N)s3)[C@H](C)Cc3cc4c(cc32)OCO4)ccc1[N+](=O)[O-] [Example 142, (R)-7-(5-Cyanomethyl-1,3,4-thiadiazol-2-yl)-8-methyl-5-(3-methyl-4-nitrophenyl)-8,9-dihydro-7H-1,3-dioxolo[4,5-h][2,3]benzodiazepine] |
| 132 to 134 | CSCc1nnc(N2N=C(c3ccc([N+](=O)[O-])c(C)c3)c3cc4c(cc3C[C@H]2C)OCO4)s1 [Example 143, (R)-8-Methyl-5-(3-methyl-4-nitrophenyl)-7-(5-methylthiomethyl-1,3,4-thiadiazol-2-yl)-8,9-dihydro-7H-1,3-dioxolo[4,5-h][2,3]benzodiazepine] |
| 115 to 118 | CCOC(=O)c1nnc(N2N=C(c3ccc([N+](=O)[O-])c(C)c3)c3cc4c(cc3C[C@H]2C)OCO4)s1 [Example 144, (R)-7-(5-Ethoxycarbonyl-1,3,4-thiadiazol-2-yl)-8-methyl-5-(3-methyl-4-nitrophenyl)-8,9-dihydro-7H-1,3-dioxolo[4,5-h][2,3]benzodiazepine] |
